The record followed here is patent US6747023B1 (Daiichi Pharmaceutical Co., Ltd., priority 1998, dated 2004).

For assay [1], the system named is tissue thromboplastin-derived DIC. In words: Anti-thrombus effects in a tissue thromboplastin-derived rat DIC model. Format: in vivo. To be noted: oral 30 mg/kg, tissue thromboplastin one hour after the sample. The protocol: A rat was anesthetized with halothane. After the collection of the blood (for measurement of the number of platelets, anti-FXa activity and TAT) from its cervical vein by using 1/10 part by weight of 3.13% (w/v) sodium citrate, the sample was administered orally. At an appropriate time after the administration, the rat was intraperitoneally anesthetized ([…]) with Nembutal (50 mg/ml pentobarbital sodium, Abott Laboratories), followed by intravenous drip of 0.2 U/ml of tissue thromboplastin (Thromboplastin C plus, Dade Diagnostics of P. R. Inc.,) from the femoral vein for one minute at a rate of 2.5 to 3.0 ml/kg/min. The blood was collected (for measuring the number of platelets and anti-FXa activity) from the cervical vein 10 minutes after the intravenous drip and the blood was collected (for measuring TAT) from the cervical vein 20 minutes after the blood collection. The number of platelets, anti-FXa activity in the plasma and TAT concentration of each blood sample were measured. The number of the platelets was measured by an automatic cytometer, while the anti-FXa activity in the plasma was measured in a similar manner to that described in Test 4.
For the measurement of TAT (Thrombin-anti Thrombin=complex), EnzygnostR TAT micro kit (Boering Verke) was employed.

Assay [2] relates to prothrombin time of the plasma. Nature of the assay: Test of oral administration: coagulation extending action (prothrombin time). It is filed as in vivo, Wistar male rat. Particulars: rat, oral administration of 30 mg/kg. On the procedure: (§1) A sample was dissolved or suspended in a 0.5% (w/v) methyl cellulose solution and the resulting solution or suspension was orally administered (10 ml/kg) to a 8 to 11 week-old rat (Wistar male rat (Nippon SLC Co., Ltd.)) which had been fasted overnight. After administration of the sample, the blood to which 1/10 part by weight of 3.13% (w/v) sodium citrate had been added was collected from the cervical vein under anesthesia with halothane. The rat was awakened except during the blood collection. Feeding was re-started 6 hours after the blood collection. From each blood sample, the plasma was separated by centrifugal separation and anti-FXa activity in the blood and prothrombin time extending action were measured.
To 20 μl of the plasma, 40 μl of cynplastin (Organon Teknika/USA) was added and the coagulation time was measured. The ratio of the prothrombin time after the administration of the sample relative to the prothrombin time before the administration of the sample was designated as an index of the coagulation extending action.

The target in the next assay is human Factor Xa (Homo sapiens, UniProt P00742). In words: Test of oral administration: anti-FXa activity in the plasma. It is filed as in vivo, Wistar male rat. Particulars: rat, one hour after the oral administration of 30 mg/kg. On the procedure: as §1
Sequence of human Factor Xa (P00742 235-488 limits assumed): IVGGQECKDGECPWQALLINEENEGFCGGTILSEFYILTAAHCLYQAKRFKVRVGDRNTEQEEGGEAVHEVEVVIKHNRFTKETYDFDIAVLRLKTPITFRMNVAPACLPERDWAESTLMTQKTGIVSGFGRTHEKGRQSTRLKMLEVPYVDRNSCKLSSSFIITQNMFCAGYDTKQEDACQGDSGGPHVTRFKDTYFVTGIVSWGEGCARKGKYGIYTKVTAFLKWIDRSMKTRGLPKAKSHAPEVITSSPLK
Sequence of human Factor Xa (P00742 41-179 partner limits assumed): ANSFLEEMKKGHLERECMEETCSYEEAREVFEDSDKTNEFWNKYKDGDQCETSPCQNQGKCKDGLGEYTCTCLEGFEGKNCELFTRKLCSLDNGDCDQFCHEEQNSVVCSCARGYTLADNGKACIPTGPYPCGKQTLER
In a 96-well plate, 5 μl of the plasma was poured in portions, followed by the addition of 55 μl of a 8:1:2 mixture of 100 mM tris.200 mM sodium chloride.0.2% BSA (pH 7.4) buffer, water and 0.1 U/ml human Factor Xa solution (dissolved in and diluted with a measuring buffer) and 40 μl of 750 μM S-2222. After stirring for 10 seconds in a plate mixer, an increase (mOD/min) of the absorbance at 405 nm was measured at room temperature. The inhibitory ratio was calculated as follows:
An inhibitory ratio (%)=(1−OD of sample÷OD of control on average relative to blood-collecting time of sample)×100

Regarding `CC1Cc2nc(C(=O)N3CCN(S(=O)(=O)c4ccc5cc(Cl)ccc5c4)CC3C(N)=O)sc2CN1.Cl` (centres unmarked) [Example B-36, 2-Carbamoyl-4-[(6-chloronaphthalen-2-yl)sulfonyl]-1-[(6-methyl-4,5,6,7-tetrahydrothiazolo[5,4-c]pyridin-2-yl)carbonyl]piperazine hydrochloride], in assay [1], the “anti-FXa action in the plasma (result in words)” value is recorded as “apparent anti-FXa action in the plasma was recognized”, the “decrease in the number of the platelets” value is “suppressed” and the “increase in the TAT concentration” value was “suppressed”. Also, the “thrombin time (result in words)” value in assay [2] is recorded as “extended the thrombin time”. At human Factor Xa, the “anti-FXa activity in the plasma” value amounted to 68%.
